Measured values from PubChem BioAssay (NCI).
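Interpolation was linear, between the two tested concentrations surrounding the appropriate level; five concentrations were tested over 48 hours in 96-well plates. TGI marks complete inhibition of growth.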

Experiments:
Test in all cases: NCI-60 cell line screen, 48 h
[1] = system: SF-295 CNS
[2] = system: CCRF-CEM leukemia
[3] = system: BT-549 breast
[4] = system: NCI-H522 lung
[5] = system: HT29 colon
[6] = system: RPMI-8226 leukemia
[7] = system: SNB-19 CNS
[8] = system: OVCAR-4 ovarian
[9] = system: HS 578T breast
[10] = system: MCF7 breast

Row | Structure (SMILES) | TGI [1] | TGI [2] | TGI [3] | TGI [4] | TGI [5] | TGI [6] | TGI [7] | TGI [8] | TGI [9] | TGI [10]
1 | O=C1/C(=C/c2ccc(O)cc2)CCC1CNc1ccccc1 (centres undefined) | 29.5 µM | 4.54 µM | 27.6 µM | 6.95 µM | 27.7 µM | 5.12 µM | 30.1 µM | 33.3 µM | 57.6 µM | 10.2 µM
2 | O=C(O)CCSC1=NCCN1 | > 100 µM | > 100 µM | > 100 µM | > 100 µM | > 100 µM | > 100 µM | > 100 µM | > 100 µM | > 100 µM | > 100 µM
3 | CC1=NN2C(=N)/C(=C/c3ccccc3)C(=O)N=C2S1 | > 100 µM | > 100 µM | > 100 µM | > 100 µM | > 100 µM | > 100 µM | > 100 µM | > 100 µM | > 100 µM | > 33.6 µM
4 | C/C(=N/NC(=S)N1CCN(C(=S)N/N=C(/C)c2ccccn2)CC1)c1ccccn1 | > 100 µM | > 100 µM | > 100 µM | 99.2 µM | > 100 µM | > 100 µM | > 100 µM | > 100 µM | > 83.8 µM | > 100 µM
5 | CC(C)(CN1CCCCC1)C(/C=C/c1ccccc1)=N\NC(=O)N/N=C(/C=C/c1ccccc1)C(C)(C)CN1CCCCC1 | 3.09 µM | 3.37 µM | 3.23 µM | 3.35 µM | 2.53 µM | 3.96 µM | 3.95 µM | 14.1 µM | 5.92 µM | 3.53 µM
6 | C=CCOC1(CC=C)C(=O)OC2C(O)COC21O (centres undefined) | > 100 µM | > 100 µM | > 100 µM | > 100 µM | > 100 µM | – | > 100 µM | > 100 µM | > 100 µM | > 100 µM
7 | COC(=O)c1cc(C)ccc1/C=C1\Cc2c(C)cc(C)cc2C1=O | 33.1 µM | > 100 µM | > 75.7 µM | > 100 µM | > 100 µM | > 100 µM | 52.8 µM | > 100 µM | 42.9 µM | > 100 µM
8 | CNC(=O)N(CCC#N)CCCN(C(=O)N(C)C)c1ccccc1 | > 100 µM | > 100 µM | > 100 µM | > 100 µM | > 100 µM | > 100 µM | > 100 µM | > 100 µM | > 100 µM | > 100 µM
9 | COc1cccc(NC(=O)CC(=O)N2N=C(C)C(N=Nc3ccc(C(=O)O)cc3)C2=O)c1 (centres undefined) | > 100 µM | > 100 µM | > 100 µM | > 100 µM | > 100 µM | > 100 µM | > 100 µM | > 100 µM | > 100 µM | > 100 µM
10 | CC1CN=C(c2ccc(CN3CCC(C4CCN(Cc5ccc(C6=NCC(C)N6)cc5)CC4)CC3)cc2)N1 (centres undefined) | 43.2 µM | 38.2 µM | > 100 µM | 33.7 µM | 42.7 µM | 46.2 µM | 75.8 µM | 38.8 µM | 41.8 µM | 37.4 µM
11 | O=C(NCCCCCCO)c1cccc2cc3ccccc3nc12 | 32.8 µM | > 100 µM | 33.2 µM | 28.8 µM | 36.6 µM | 47.3 µM | 32.1 µM | 66.2 µM | 71.9 µM | 39.3 µM
12 | CC1=CC[C@](C)(O)[C@@]2(C)CC[C@H]3C(=C(C)C)C(=O)C[C@]3(C)C[C@H]12 | > 50 µM | 34.2 µM | > 50 µM | 31.5 µM | > 50 µM | 26.2 µM | > 50 µM | > 50 µM | > 50 µM | > 50 µM
13 | COc1ccccc1NC(=S)N/N=C/c1ccccn1 | > 31.6 µM | > 23.1 µM | 77 µM | 10.9 µM | > 31.6 µM | > 22.6 µM | > 46.4 µM | > 100 µM | > 46.4 µM | > 100 µM
14 | Nc1ccc2c(c1)NC(=O)[C@@H]1CCCN1C2=O | > 100 µM | > 100 µM | > 100 µM | > 100 µM | > 100 µM | > 100 µM | > 100 µM | > 100 µM | > 100 µM | > 100 µM
15 | O=C(O)COc1cc(-c2ccccc2)nc2ccccc12 | > 100 µM | > 100 µM | > 100 µM | > 100 µM | > 100 µM | > 100 µM | > 100 µM | > 100 µM | > 100 µM | > 100 µM
16 | Cc1ccc(/C=N\NC(=O)c2ccncc2)s1 | > 100 µM | > 100 µM | > 100 µM | > 100 µM | > 100 µM | > 100 µM | > 100 µM | > 100 µM | > 100 µM | > 100 µM
17 | COc1cc2c(c(OC)c1)C(=O)O[C@H](C)CCCC/C=C/C2 | > 32.2 µM | > 100 µM | > 35.1 µM | 24 µM | > 71.8 µM | 25.6 µM | > 32.5 µM | > 31.4 µM | > 100 µM | > 32.6 µM
18 | C[C@]12CC[C@H]3[C@@H](CCC4=C(Br)C(=O)C=C[C@@]43O)[C@@H]1CCC2=O | > 100 µM | 31.7 µM | 81.1 µM | 38.1 µM | > 100 µM | > 100 µM | > 100 µM | > 100 µM | > 100 µM | > 100 µM
19 | COc1cccc(C23CCCC(C2)N(C)CC3OC(=O)c2ccccc2)c1OC (centres undefined) | 77.7 µM | 25 µM | 44.9 µM | 67.6 µM | 43.3 µM | 55.3 µM | > 100 µM | > 100 µM | 78.6 µM | > 100 µM
